Measurements taken from patent US11439624B2, “Promoting sleep using AT1 receptor blockers” (UNIVERSITY OF PITTSBURGH—OF THE COMMONWEALTH SYSTEM OF …, priority 2012, dated 2022).

How the values were obtained:
[1] = tested on: rats in the stress-induced insomnia model; experiment: stress-induced insomnia model in rats (cage exchange; EEG and EMG recording); assay type: in vivo, rat; conditions: for average of REM sleep / average of nREM sleep / average of wakefulness along the entire experiment: aprox. 6 hours after cage exchange and drug injection; for average of REM sleep: vehicle 2%; for average of nREM sleep: vehicle 45%; for average of wakefulness along the entire experiment: vehicle 52%; for REM sleep (range depending on the hour): vehicle 0-4%; for sleep latency: stressed (cage exchanged) rats, i.p. just prior to transfer to soiled cage, candesartan 1 or 5 mg/kg, azilsartan 0.5 mg/kg, vehicle 68±10 minutes; for abnormal wave components in the EEG (power spectrum analysis): treated rats in the insomnia model
Description: Rats in the stress-induced insomnia model (25) were treated with candesartan intraperitoneally (i.p.; 1 mg/kg or 5 mg/kg). In the model, insomnia is induced by transferring male rats at the peak of their normal sleep cycle into a soiled cage previously occupied during one week by another male rat. This simple procedure induces a psychological or social stress response in the rats, which are very territorial animals. The sequence of sleep disturbances in cage exchanged rats is similar to that observed in humans with primary insomnia. In rats, there is an initial delay in sleep onset and increased wakefulness that resemble the difficulties falling asleep at the beginning of the night, or initial insomnia, observed in humans after a stressful day. Eventually, insomniacs fall asleep because of the sleep pressure, as rats do. But later, as the night progresses, they usually experience insomnia characterized by decreased nREM sleep, frequent awakenings, and poor quality sleep, similar to what we observed in the stressed rats. Candesartan was injected i.p. just prior to transferring the rats (n=7 for the 1 mg/kg treatment and n=4 for the 5 mg/kg treatment) to the soiled cage. EEG and EMG activity were recorded continuously to determine the behavioral state (wake, nREM or REM sleep) along several hours. Control rats (n=6) were injected with vehicle and also placed in a soiled cage and recorded. […] REM sleep is increased to 6-12% (depending on the hour) compared with vehicle treated rats (0-4%). In an additional study, Azilsartan was tested using the same stress-induced insomnia model in rats as was used in Example 1. Azilsartan, which mainly acts as an inverse agonist of AT1 receptors, has been reported to have a potent effect in the treatment of hypertension at a single daily dose compared to twice-a-day doses commonly used for other AT1 receptor blockers. For this reason, we used a lower dose of azilsartan (0.5 mg/kg) than the dose used for candesartan. Azilsartan was injected i.p. just prior to transferring the rats (n=4) to the soiled cage. EEG and EMG activity were recorded continuously to determine the behavioral state (wake, nREM or REM sleep) along several hours, as explained above.

[2] = tested on: humans treated for hypertension; conditions: cited from earlier work
[3] = candesartan 1 or 5 mg/kg i.p., azilsartan 0.5 mg/kg i.p.

CCOc1nc2cccc(C(=O)O)c2n1Cc1ccc(-c2ccccc2-c2noc(=O)[nH]2)cc1 [azilsartan]
more sleep in the last two hours of the experiment compared to candesartan-treated rats ([1]; 4 hours after injection of the drug, azilsartan 0.5 mg/kg i.p.): 20%
average of REM sleep [1]: 10%
average of nREM sleep [1]: 68%
average of wakefulness along the entire experiment [1]: 22%
percentage of nREM sleep (range depending on the hour) ([1]; azilsartan 0.5 mg/kg i.p.): 50-82%
REM sleep (range depending on the hour) [1, 3]: 3-15%
sleep latency [1]: 60 ± 3 min
abnormal wave components in the EEG (power spectrum analysis) [1]: does not seem to induce abnormal wave components in the EEG
effect on sleep disturbances induced by stress ([1]; validated rat model of stress-induced insomnia): ameliorate sleep disturbances induced by stress
duration of effect compared with other AT1 receptor blockers [2]: longer-lasting effect than other AT1 receptor blockers

CCOc1nc2cccc(C(=O)O)c2n1Cc1ccc(-c2ccccc2-c2nnn[nH]2)cc1 [candesartan]
average of REM sleep [1]: 7.5%
average of nREM sleep [1]: 57%
average of wakefulness along the entire experiment [1]: 35%
nREM sleep increase compared with vehicle treated rats (depending on the hour) ([1]; candesartan 1 or 5 mg/kg i.p.): 20-40%
REM sleep (range depending on the hour) [1, 3]: 6-12%
sleep latency [1]: 38 ± 3 min
abnormal wave components in the EEG (power spectrum analysis) [1]: does not induce abnormal wave components in the EEG
